In ChEMBL document CHEMBL1201862, “PubChem BioAssay data set” (2004):
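Following 48 hours of exposure in 96-well plates, responses at five concentrations were used to interpolate endpoints linearly. At the GI50, growth is halved.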 Calls of active or inactive are those of the source. Cut-off read from the data, not from the text of the source: active = GI50 up to about 1.1 µM and inactive = higher.

How the values were obtained:
Assay in all cases: DTP human tumour cell line panel, 48 h
786-0 = test system: 786-0
A498 = test system: A498
A549 = test system: A549
ACHN = test system: ACHN
BT-549 = test system: BT-549
CAKI-1 = test system: CAKI-1
CCRF-CEM = test system: CCRF-CEM
COLO 205 = test system: COLO 205
DU-145 = test system: DU-145
EKVX = test system: EKVX
HCT-116 = test system: HCT-116
HCT-15 = test system: HCT-15
HL-60 = test system: HL-60
HOP-62 = test system: HOP-62
HOP-92 = test system: HOP-92
HT-29 = test system: HT-29
Hs-578T = test system: Hs-578T
IGROV-1 = test system: IGROV-1
KM12 = test system: KM12
LOX IMVI = test system: LOX IMVI
M14 = test system: M14
MCF7 = test system: MCF7
MDA-MB-435 = test system: MDA-MB-435
MDA-N = test system: MDA-N
MOLT-4 = test system: MOLT-4
Malme-3M = test system: Malme-3M
NCI-H226 = test system: NCI-H226
NCI-H23 = test system: NCI-H23
NCI-H460 = test system: NCI-H460
NCI-H522 = test system: NCI-H522
NCI/ADR-RES = test system: NCI/ADR-RES
OVCAR-3 = test system: OVCAR-3
OVCAR-4 = test system: OVCAR-4
OVCAR-5 = test system: OVCAR-5
OVCAR-8 = test system: OVCAR-8
PC-3 = test system: PC-3
RXF 393 = test system: RXF 393
SF-268 = test system: SF-268
SF-295 = test system: SF-295
SF-539 = test system: SF-539
SK-MEL-28 = test system: SK-MEL-28
SK-MEL-2 = test system: SK-MEL-2
SK-MEL-5 = test system: SK-MEL-5
SK-OV-3 = test system: SK-OV-3
SN12C = test system: SN12C
SNB-19 = test system: SNB-19
SNB-75 = test system: SNB-75
SR = test system: SR
SW-620 = test system: SW-620
T47D = test system: T47D
TK-10 = test system: TK-10
U-251 = test system: U-251
UACC-257 = test system: UACC-257
UACC-62 = test system: UACC-62
UO-31 = test system: UO-31

**Q.** How did the GI50 (786-0) turn out when COc1cc(Oc2nc3cc(F)c(F)cc3nc2-c2ccccc2)cc(OC)c1OC was run?
**A.** 30.5 µM (inactive)

**Q.** And the GI50 (A498)?
**A.** > 100 µM (inactive)

**Q.** What about the GI50 (A549) of the same compound?
**A.** > 100 µM (inactive)

**Q.** What about the GI50 (ACHN) of the same compound?
**A.** 43.5 µM (inactive)

**Q.** What about the GI50 (BT-549) of the same compound?
**A.** > 100 µM (inactive)

**Q.** And the GI50 (CAKI-1)?
**A.** 46 µM (inactive)

**Q.** And the GI50 (CCRF-CEM)?
**A.** > 100 µM (inactive)

**Q.** And the GI50 (COLO 205)?
**A.** > 100 µM (inactive)

**Q.** And the GI50 (DU-145)?
**A.** > 100 µM (inactive)

**Q.** And the GI50 (EKVX)?
**A.** 97.7 µM (inactive)

**Q.** What about the GI50 (HCT-116) of the same compound?
**A.** > 100 µM (inactive)

**Q.** And the GI50 (HCT-15)?
**A.** 51.9 µM

**Q.** What about the GI50 (HL-60) of the same compound?
**A.** > 100 µM (inactive)

**Q.** What about the GI50 (HOP-62) of the same compound?
**A.** 82 µM (inactive)

**Q.** And the GI50 (HOP-92)?
**A.** > 100 µM (inactive)

**Q.** And the GI50 (HT-29)?
**A.** 89.3 µM (inactive)

**Q.** And the GI50 (Hs-578T)?
**A.** 38.7 µM (inactive)

**Q.** What about the GI50 (IGROV-1) of the same compound?
**A.** > 100 µM (inactive)

**Q.** What about the GI50 (KM12) of the same compound?
**A.** 35 µM (inactive)

**Q.** What about the GI50 (LOX IMVI) of the same compound?
**A.** 81.8 µM (inactive)

**Q.** And the GI50 (M14)?
**A.** 45.3 µM (inactive)

**Q.** And the GI50 (MCF7)?
**A.** 29.5 µM (inactive)

**Q.** What about the GI50 (MDA-MB-435) of the same compound?
**A.** 61.9 µM (inactive)

**Q.** And the GI50 (MDA-N)?
**A.** > 100 µM (inactive)

**Q.** And the GI50 (MOLT-4)?
**A.** > 100 µM (inactive)

**Q.** What about the GI50 (Malme-3M) of the same compound?
**A.** 32 µM (inactive)

**Q.** What about the GI50 (NCI-H226) of the same compound?
**A.** 45.5 µM (inactive)

**Q.** What about the GI50 (NCI-H23) of the same compound?
**A.** > 100 µM (inactive)

**Q.** And the GI50 (NCI-H460)?
**A.** 63.8 µM (inactive)

**Q.** And the GI50 (NCI-H522)?
**A.** 13.9 µM (inactive)

**Q.** And the GI50 (NCI/ADR-RES)?
**A.** > 100 µM (inactive)

**Q.** What about the GI50 (OVCAR-3) of the same compound?
**A.** > 100 µM (inactive)

**Q.** What about the GI50 (OVCAR-4) of the same compound?
**A.** 79.3 µM (inactive)

**Q.** What about the GI50 (OVCAR-5) of the same compound?
**A.** > 100 µM (inactive)

**Q.** What about the GI50 (OVCAR-8) of the same compound?
**A.** > 100 µM (inactive)

**Q.** And the GI50 (PC-3)?
**A.** 40.3 µM (inactive)

**Q.** And the GI50 (RXF 393)?
**A.** > 100 µM (inactive)

**Q.** What about the GI50 (SF-268) of the same compound?
**A.** 59 µM (inactive)

**Q.** What about the GI50 (SF-295) of the same compound?
**A.** 46.3 µM (inactive)

**Q.** And the GI50 (SF-539)?
**A.** 26.8 µM (inactive)

**Q.** What about the GI50 (SK-MEL-28) of the same compound?
**A.** > 100 µM (inactive)

**Q.** What about the GI50 (SK-MEL-2) of the same compound?
**A.** > 100 µM (inactive)

**Q.** What about the GI50 (SK-MEL-5) of the same compound?
**A.** 28.1 µM (inactive)

**Q.** What about the GI50 (SK-OV-3) of the same compound?
**A.** > 100 µM (inactive)

**Q.** And the GI50 (SN12C)?
**A.** > 100 µM (inactive)

**Q.** And the GI50 (SNB-19)?
**A.** 34.2 µM (inactive)

**Q.** What about the GI50 (SNB-75) of the same compound?
**A.** 20.4 µM (inactive)

**Q.** What about the GI50 (SR) of the same compound?
**A.** 78.9 µM (inactive)

**Q.** What about the GI50 (SW-620) of the same compound?
**A.** > 100 µM (inactive)

**Q.** What about the GI50 (T47D) of the same compound?
**A.** > 100 µM (inactive)

**Q.** What about the GI50 (TK-10) of the same compound?
**A.** 68.2 µM (inactive)

**Q.** What about the GI50 (U-251) of the same compound?
**A.** 40.3 µM (inactive)

**Q.** And the GI50 (UACC-257)?
**A.** > 100 µM (inactive)

**Q.** What about the GI50 (UACC-62) of the same compound?
**A.** 25.8 µM (inactive)

**Q.** And the GI50 (UO-31)?
**A.** 73.6 µM (inactive)
